In patent publication US5128346A, “Derivatives of D-glutamic acid and D-aspartic acid” (priority 1990, dated 1992):
Like-named read-outs stand apart in the source and are kept apart here.

Columns and labels:
Type-B CCK receptor = biological target: T1, Type-B CCK receptor (Cavia porcellus, UniProt H0VZC5); experiment: Radioligand binding, [^125 I]-BH-CCK8, Type-B CCK receptor (cerebral cortical membranes); parameters: species or system guinea pig
T1 construct: cortex and pancreas were removed and rinsed with ice cold saline; from tissue; host or cells: guinea pig cerebral cortex, membranes
T1 sequence (H0VZC5 1-426): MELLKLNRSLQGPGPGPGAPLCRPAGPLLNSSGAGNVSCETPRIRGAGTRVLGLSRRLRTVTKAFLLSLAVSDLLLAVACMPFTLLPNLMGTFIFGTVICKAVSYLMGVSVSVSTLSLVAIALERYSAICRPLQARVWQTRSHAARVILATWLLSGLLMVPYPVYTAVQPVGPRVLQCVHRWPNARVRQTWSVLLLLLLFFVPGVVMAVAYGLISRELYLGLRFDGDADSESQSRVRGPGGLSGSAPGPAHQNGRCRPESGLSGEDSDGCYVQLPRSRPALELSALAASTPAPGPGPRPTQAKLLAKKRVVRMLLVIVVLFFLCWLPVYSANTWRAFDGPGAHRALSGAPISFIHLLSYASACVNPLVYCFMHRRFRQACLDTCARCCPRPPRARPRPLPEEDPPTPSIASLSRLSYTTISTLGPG
Source text: (§1) CCK8 [Asp-Tyr(SO3 H)-Met-Gly-Trp-Met-Asp-Phe-NH2 ] was purchased from Beckman Instruments (Palo Alto, Ca/) and Peptide International (Louisville, Ky.). Chymostatin, L-Try-Gly, puromycin, bestatin, EGTA, HEPES and BSA were purchased from Sigma Chemical Co. (St. Louis, Mo.). [^125 I]BH-CCK8 (specific activity, 2200 Ci/mmol) and Aquasol 2 scintillation cocktail were obtained from New England Nuclear (Boston, Ma.). Male guinea pigs, 250 to 325 g, were obtained from Scientific Small Animal Laboratory and Farm (Arlington Heights, Ill.). Collagenase, 300 units per mg, was purchased from Worthington (Frehold, N.J.)
(§2) 1. Guinea Pig Cerebral Cortical and Pancreatic Membrane Preparations
(§3) Cortical and pancreatic membrances were prepared as described (Lin and Miller; J. Pharmacol. Exp. Ther. 232, 775-780, 1985). In brief, cortex and pancreas were removed and rinsed with ice cold saline. Visible fat and connective tissues were removed from the pancreas. Tissues were weighed and homogenized separately in approximately 25 mL of ice-cold 50 mM Tris-HCl buffer, pH 7.4 at 4° C., with a Brinkman Polytron for 30 sec, setting 7. The homogenates were centrifuged for 10 min at 1075×g and pellets were discarded. The supernatants were saved and centrifuged at 38,730×g for 20 min. The resultant pellets were rehomogenized in 25 mL of 50 mM Tris-HCl buffer with a Teflon-glass homogenizer, 5 up and down strokes. The homogenates were centrifuged again at 38,730×g for 20 min. Pellets were then resuspended in 20 mM HEPES, containing 1 mM EGTA., 118 mM NaCl, 5 mM MgCl2, 100 microM bestatin, 3 microM phosphoramidon, pH 7.4 at 22° C., with a Teflon-glass homogenizer, 15 up and down strokes. Resuspension volume for the cortex was 15-18 mL per gm of original wet weight and 60 mL per gm for the pancreas.
^125 I]Bolton-Hunter CCK8, and test compounds were diluted with HEPES-EGTA-salt buffer (see above) containing 0.5% bovine serum albumin (BSA). To 1 mL Skatron polystyrene tubes were added 25 microliters of test compounds, 25 miroliters of [^125 I]BH-CCK8, and 200 microliters of membrane suspension. The final BSA concentration was 0.1%. The cortical tissues were incubated at 30° C. for 150 min and pancreatic tissues were incubated at 37° C. for 30 min. Incubations were terminated by filtration using Skatron Cell Harvester and SS32 microfiber filter mats. […] IC50 's were determined from the Hill analysis.

Type-A CCK receptor = biological target: T2, Type-A CCK receptor (Cavia porcellus, UniProt Q63931); experiment: Radioligand binding, [^125 I]-BH-CCK8, Type-A CCK receptor (pancreatic membranes); parameters: species or system guinea pig
T2 construct: cortex and pancreas were removed and rinsed with ice cold saline; from tissue; host or cells: guinea pig pancreas, membranes
T2 sequence (Q63931 1-430): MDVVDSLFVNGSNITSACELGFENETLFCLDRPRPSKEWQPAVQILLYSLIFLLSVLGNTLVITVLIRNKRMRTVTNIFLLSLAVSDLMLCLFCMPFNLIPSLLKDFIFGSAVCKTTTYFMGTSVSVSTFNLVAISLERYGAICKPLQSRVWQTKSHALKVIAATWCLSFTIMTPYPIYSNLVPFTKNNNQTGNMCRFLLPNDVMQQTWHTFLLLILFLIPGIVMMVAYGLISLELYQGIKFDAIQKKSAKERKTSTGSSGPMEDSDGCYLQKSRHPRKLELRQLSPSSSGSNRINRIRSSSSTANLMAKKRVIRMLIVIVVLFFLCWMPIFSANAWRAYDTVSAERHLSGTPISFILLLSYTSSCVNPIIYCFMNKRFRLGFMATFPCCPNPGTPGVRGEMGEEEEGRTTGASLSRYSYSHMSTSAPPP
Source text: as §1, §2, §3
^125 I]Bolton-Hunter CCK8, and test compounds were diluted with HEPES-EGTA-salt buffer (see above) containing 0.5% bovine serum albumin (BSA). To 1 mL Skatron polystyrene tubes were added 25 microliters of test compounds, 25 miroliters of [^125 I]BH-CCK8, and 200 microliters of membrane suspension. The final BSA concentration was 0.1%. The cortical tissues were incubated at 30° C. for 150 min and pancreatic tissues were incubated at 37° C. for 30 min. Incubations were terminated by filtration using Skatron Cell Harvester and SS32 microfiber filter mats. The specific binding of [^125 I]BH-CCK8, defined as the difference between binding in the absence and presence of 1 microM CCK8, was 85 90% of pancreas. IC50 's were determined from the Hill analysis.

[1] = guinea pig cerebral cortical membranes, 30° C., 150 min, IC50 from Hill analysis

| IC50 (Type-B CCK receptor) [nM] | IC50 (Type-A CCK receptor) [nM] | IC50, [^125 I]-BH-CCK, Type-B CCK Receptor (Type-B CCK receptor; [1]) | IC50 (Type-B CCK receptor; [1]) [nM] | IC50 (Type-A CCK receptor; guinea pig pancreatic membranes, 37° C., 30 min, IC50 from Hill analysis) [nM] | SMILES |
| --- | --- | --- | --- | --- | --- |
| 3500 | 240 | – | – | – | CCCCCN(CCCCC)C(=O)[C@@H](CCC(=O)OCc1ccccc1)NC(=O)c1cc2ccccc2[nH]1 [Example 3, N-(2'-Indolylcarbonyl)-(γ-benzyl ester)-R-Glu-di-n-pentylamide] |
| 6500 | 34 | – | – | – | CCCCCN(CCCCC)C(=O)[C@@H](CCC(=O)O)NC(=O)c1cnc2ccccc2n1 [Example 10, N-(2'-Quinoxalylcarbonyl)-R-Glu-N^α,N^α -di-n-pentylamide] |
| 5600 | 92 | – | – | – | CCCCCN(CCCCC)C(=O)[C@@H](CCC(=O)O)NC(=O)C1CNc2ccccc2N1 (stereo partly drawn) [Example 13, N-(1',2',3',4'-Tetrahydroquinoxalyl-2'-carbonyl)-R-Glu-N^α,N^α -di-n-pentylamide] |
| 2900 | 820 | – | – | – | CCCCCN(CCCCC)C(=O)[C@@H](CC(=O)OCc1ccccc1)NC(=O)c1cc2ccccc2[nH]1 [Example 18] |
| 6300 | 200 | – | – | – | COC(=O)[C@@H](NC(=O)[C@@H](CCC(=O)OCc1ccccc1)NC(=O)c1cc2ccccc2[nH]1)c1ccccc1 [Example 36, Methyl N-(2'-Indolylcarbonyl)-(γ-benzylester)-R-Glutamyl-S-phenylglycinate] |
| – | 34 | 1-10,000 nM | – | – | CCCCCN(CCCCC)C(=O)[C@@H](CCC(=O)O)NC(=O)c1cc2ccccc2n1C [Example 60, N-(N^i -Methyl-2,-Indolylcarbonyl)-R-Glu-N^α,N^α -dipentylamide] |
| 10000 | 250 | – | – | – | CCOC(=O)CN(Cc1ccccc1)C(=O)[C@@H](CCC(=O)OCc1ccccc1)NC(=O)c1cnc2ccccc2c1 [Example 82, Ethyl N-(3,-Quinolylcarbonyl)-(γ-benzylester)-R-Glutamyl (N-benzyl)glycinate] |
| > 10000 | 68 | – | – | – | COC(=O)[C@@H](NC(=O)[C@@H](CCC(=O)O)NC(=O)c1cnc2ccccc2c1)c1ccccc1 [Example 91, Methyl N-(3,-Quinolylcarbonyl)-R-Glutamyl-S-phenylglycinate] |

The remaining lines, values behind:

| SMILES | IC50 (Type-B CCK receptor) [nM] | IC50 (Type-A CCK receptor) [nM] | IC50, [^125 I]-BH-CCK, Type-B CCK Receptor (Type-B CCK receptor; [1]) | IC50 (Type-B CCK receptor; [1]) [nM] | IC50 (Type-A CCK receptor; guinea pig pancreatic membranes, 37° C., 30 min, IC50 from Hill analysis) [nM] |
| --- | --- | --- | --- | --- | --- |
| CCCCCN(CCCCC)C(=O)[C@@H](CCC(=O)O)NC(=O)c1ccc2ccccc2n1 [Example 6, N-(2,-Quinolylcarbonyl)-R-Glu-N^α,N^α -di-n-pentylamide] | 4200 | 62 | – | – | – |
| CCCCCN(CCCCC)C(=O)[C@@H](CC(=O)O)NC(=O)c1ccc2ccccc2n1 [Example 21, N-(2'-Quinolylcarbonyl)-R-Asp-N^α,N^α -di-n-pentylamide] | 6600 | 210 | – | – | – |
| CCCCCN(CCCCC)C(=O)[C@@H](CCC(N)=O)NC(=O)c1cc2ccccc2[nH]1 [Example 22, N-(2'-Indolylcarbonyl)-R-Gln-N^α,N^α -di-n-pentylamide] | 6660 | 97 | – | – | – |
| O=C(CC[C@@H](NC(=O)c1cnc2ccccc2c1)C(=O)NCc1ccccc1)OCc1ccccc1 [Example 25, N-(3'-Quinolylcarbonyl)-(γ-benzyl ester)-R-Glu-benzylamide] | > 10000 | 310 | – | – | – |
| COC(=O)[C@@H](NC(=O)[C@@H](CCC(=O)O)NC(=O)c1cc2ccccc2[nH]1)c1ccccc1 [Example 37, Methyl N-(2'-Indolylcarbonyl)-R-Glutamyl-S-phenylglycinate] | – | 49 | 1-10,000 nM | – | – |
| O=C(O)CC[C@@H](NC(=O)c1cc2ccccc2[nH]1)C(=O)Nc1ccccc1-c1ccccc1 [Example 38, N-(2'-Indolylcarbonyl)-R-Glu-N^α -(2'-biphenylamide)] | 7100 | 900 | – | – | – |
| O=C(O)CC[C@@H](NC(=O)c1cc2ccccc2[nH]1)C(=O)NC12CC3CC(CC(C3)C1)C2 [Example 54, N-(2'-Indolylcarbonyl)-R-Glu-N^α -(1,-adamantyl)amide] | > 10000 | 660 | – | – | – |
| CCOC(=O)CN(Cc1ccccc1)C(=O)[C@@H](CCC(=O)O)NC(=O)c1cnc2ccccc2c1 [Example 83, Ethyl N-(3'-Quinolylcarbonyl)-R-Glutamyl(N-benzyl)glycinate] | > 10000 | 44 | – | – | – |
| CCOC(=O)CN(Cc1ccccc1)C(=O)[C@@H](CCC(=O)OCc1ccccc1)NC(=O)c1cc(O)c2cccc(O)c2n1 [Example 84] | 620 | 28 | – | – | – |
| CCOC(=O)CN(Cc1ccccc1)C(=O)[C@@H](CCC(=O)O)NC(=O)c1cc(O)c2cccc(O)c2n1 [Example 85, Ethyl N-(4',8'-Dihydroxyquinolyl-2-carbonyl)-R-Glutamyl (N-benzyl)glycinate] | < 10000 | 100 | – | – | – |
| COC(=O)[C@@H](NC(=O)[C@@H](CCC(=O)O)NC(=O)c1ccc2ccccc2c1)c1ccccc1 [Example 89, Methyl N-(2 '-Naphthoyl)-R-Glutamyl-S-phenylglycinate] | > 10000 | 140 | – | – | – |
| COC(=O)[C@@H](NC(=O)[C@@H](CCC(=O)O)NC(=O)c1cc(O)c2cccc(O)c2n1)c1ccccc1 [Example 93, Methyl N-(4',8'-Dihydroxyquinolyl-2-carbonyl)-R-Glutamyl-S-phenylglycinate] | ≤ 10000 | 100 | – | – | – |
| CCOC(=O)CN(CC(=O)OCC)C(=O)[C@@H](CCC(=O)OCc1ccccc1)NC(=O)c1cnc2ccccc2c1 [Example 106, N-(3'-Quinolylcarbonyl)-(γ-Benzyl ester)-R-Glutamyl-bis(carboethoxymethyl)amide] | ~10000 | 93 | – | – | – |
| CCOC(=O)CN(CC(=O)OCC)C(=O)[C@@H](CCC(=O)O)NC(=O)c1cnc2ccccc2c1 [Example 107, N-(3,-Quinolylcarbonyl)-R-Glutamyl-bis(carboethoxymethyl)amide] | > 10000 | 110 | – | – | – |
| CCOC(=O)CN(CC(=O)OCC)C(=O)[C@@H](CCC(=O)O)NC(=O)c1cc(O)c2cccc(O)c2n1 [Example 109, N-(4',8'-Dihydroxyquinolyl-2-carbonyl)-R-Glutamyl-bis(carboethoxymethyl)amide] | – | – | – | 620 | 56 |
